Counter-ions that a name gives are not always drawn.
Tests used:
Type in all cases: biochemical
recombinant human VAP-1 = molecular target: T1, recombinant human VAP-1 (Homo sapiens, UniProt Q16853); assay: Activity on recombinant human VAP-1, HRP-coupled Amplex Red hydrogen peroxide assay; details: substrate 1 mM benzylamine; compound incubated with enzyme at 37° C. for 30 minutes; pH 7.4; read-out: Inhibitory Activity (IC50, nM) human VAP-1
T1 construct: purchased R&D systems
T1 sequence (Q16853 1-763): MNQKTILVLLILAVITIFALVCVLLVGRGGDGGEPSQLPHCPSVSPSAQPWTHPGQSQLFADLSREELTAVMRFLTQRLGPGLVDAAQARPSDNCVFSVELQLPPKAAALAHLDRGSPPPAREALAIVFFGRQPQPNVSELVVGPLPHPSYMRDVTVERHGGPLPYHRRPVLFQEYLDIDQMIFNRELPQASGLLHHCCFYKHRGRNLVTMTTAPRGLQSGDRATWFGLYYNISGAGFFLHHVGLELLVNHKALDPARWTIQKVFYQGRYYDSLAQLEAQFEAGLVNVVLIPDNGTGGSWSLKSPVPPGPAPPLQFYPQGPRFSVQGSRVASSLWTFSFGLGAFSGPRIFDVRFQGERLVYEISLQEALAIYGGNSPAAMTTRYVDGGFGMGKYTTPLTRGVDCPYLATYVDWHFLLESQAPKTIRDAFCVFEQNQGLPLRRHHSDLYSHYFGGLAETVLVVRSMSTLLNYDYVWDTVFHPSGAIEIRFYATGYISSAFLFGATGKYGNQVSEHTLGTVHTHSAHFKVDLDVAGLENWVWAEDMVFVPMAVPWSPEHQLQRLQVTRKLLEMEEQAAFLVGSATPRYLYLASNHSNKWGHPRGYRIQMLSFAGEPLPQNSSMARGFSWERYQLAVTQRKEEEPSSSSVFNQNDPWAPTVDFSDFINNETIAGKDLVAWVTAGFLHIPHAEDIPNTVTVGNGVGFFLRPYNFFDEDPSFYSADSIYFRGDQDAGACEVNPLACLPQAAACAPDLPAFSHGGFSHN
Protocol: (§1) The compounds according to the present technology were evaluated in terms of activity on recombinant human VAP-1 (R&D systems) by measuring the level of hydrogen peroxide in horseradish peroxidase (HRP)-coupled reaction using Amplex Red Hydrogen Peroxide Assay Kit (Molecular Probes, Invitrogen, USA). The experiment was carried out at room temperature using benzylamine as a substrate. In the HRP-coupled reaction, hydrogen peroxide oxidation of 10-acetyl-3,7-dihydroxyphenoxazine (Amplex Red reagent) produces resorufin, which is a highly fluorescent compound. Briefly, the test compound was dissolved in dimethyl sulfoxide (DMSO) at a concentration of 20 mM. The dose-response assessment was made by 1:3 serial dilution in DMSO, thereby creating an 8 point curve. The concentration of the upper part was controlled according to the efficacy of the compounds, followed by dilution with a reaction buffer solution to obtain a final DMSO concentration less than 1%. To each well of a 96 black well plate, human VAP-1 purified in 50 mM sodium phosphate buffer solution (pH7.4) was added. The test compounds dissolved in DMSO were incubated with the human VAP-1 enzymes at 37° C. for 30 minutes. After 30-minute incubation, each well is added with a reaction mixture containing 200 uM Amplex Red reagent prepared from 50 mM sodium phosphate buffer solution (pH 7.4), 1 mM benzylamine, and 1 U/mL HRP. Fluorescence intensity was measured at several time points during 1-2 hours using a microplate reader (Flexstation3, Molecular Devices) under the wavelength condition exciting at 544 nm and reading the emission at 590 nm. The inhibitory effect of the compounds was measured as a decrease (%) in the signal rate as compared to the control group without any inhibitor (only diluted DMSO). Data was fixed to a logistic model with four variables and IC50 value was calculated using GraphPad Prism program.

[1] = molecular target: T2, recombinant human MAO-A (monoamine oxidase-A) (Homo sapiens, UniProt P21397); assay: Activity on recombinant human MAO-A, method similar to the VAP-1 assay; details: substrate 0.5 mM tyramine; read-out: Inhibitory Activity (IC50, nM) MAO-A
T2 construct: purchased Sigma-Aldrich
T2 sequence (P21397 1-527): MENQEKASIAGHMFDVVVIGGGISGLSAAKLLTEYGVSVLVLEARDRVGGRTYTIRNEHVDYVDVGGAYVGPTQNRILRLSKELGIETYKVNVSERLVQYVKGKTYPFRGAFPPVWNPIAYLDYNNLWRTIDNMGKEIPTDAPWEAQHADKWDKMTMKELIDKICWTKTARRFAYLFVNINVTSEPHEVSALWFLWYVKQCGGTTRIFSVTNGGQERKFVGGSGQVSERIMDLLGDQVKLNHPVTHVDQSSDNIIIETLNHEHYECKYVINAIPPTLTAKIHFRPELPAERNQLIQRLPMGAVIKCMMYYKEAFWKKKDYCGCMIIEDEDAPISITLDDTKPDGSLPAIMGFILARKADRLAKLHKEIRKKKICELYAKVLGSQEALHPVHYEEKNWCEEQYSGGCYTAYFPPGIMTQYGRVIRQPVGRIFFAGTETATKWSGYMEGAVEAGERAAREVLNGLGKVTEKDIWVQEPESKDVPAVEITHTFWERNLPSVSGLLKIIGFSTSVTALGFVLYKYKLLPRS
Protocol: as §1
(§2) In addition, the compounds according to the present technology were evaluated in terms of activity on a recombinant human MAO-A (monoamine oxidase-A, Sigma-Aldrich) and a recombinant human MAO-B (monoamine oxidase-B, Sigma-Aldrich) by using as substrates, 0.5 mM tyramine and 1 mM benzylamine, respectively, with a method similar to the activity evaluation method for recombinant human VAP-1. The compounds according to the present technology were also evaluated in terms of activity on a recombinant human DAO (diamine oxidase, R&D systems) by using as a substrate 1 mM putrescine with a method similar to the activity evaluation method for recombinant human VAP-1.

[2] = molecular target: T3, recombinant human MAO-B (monoamine oxidase-B) (Homo sapiens, UniProt P27338); assay: Activity on recombinant human MAO-B, method similar to the VAP-1 assay; details: substrate 1 mM benzylamine; read-out: Inhibitory Activity (IC50, nM) MAO-B
T3 construct: purchased Sigma-Aldrich
T3 sequence (P27338 1-520): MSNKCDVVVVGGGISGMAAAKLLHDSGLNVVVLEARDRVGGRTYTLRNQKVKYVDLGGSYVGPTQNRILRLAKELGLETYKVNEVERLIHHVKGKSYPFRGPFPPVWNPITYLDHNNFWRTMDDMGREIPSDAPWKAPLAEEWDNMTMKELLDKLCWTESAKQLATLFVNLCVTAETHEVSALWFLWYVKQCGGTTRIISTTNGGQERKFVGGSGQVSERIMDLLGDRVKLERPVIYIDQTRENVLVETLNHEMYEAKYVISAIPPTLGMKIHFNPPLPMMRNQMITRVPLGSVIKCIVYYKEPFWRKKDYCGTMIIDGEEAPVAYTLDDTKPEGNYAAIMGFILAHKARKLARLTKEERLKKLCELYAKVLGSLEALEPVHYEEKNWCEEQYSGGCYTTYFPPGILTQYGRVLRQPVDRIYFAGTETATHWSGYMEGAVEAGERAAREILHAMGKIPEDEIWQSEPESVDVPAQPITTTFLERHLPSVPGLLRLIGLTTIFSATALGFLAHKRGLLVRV
Protocol: as §1, §2

[3] = molecular target: T4, recombinant human DAO (diamine oxidase) (Homo sapiens, UniProt P19801); assay: Activity on recombinant human DAO, method similar to the VAP-1 assay; details: substrate 1 mM putrescine; read-out: Inhibitory Activity (IC50, nM) DAO
T4 construct: purchased R&D systems
T4 sequence (P19801 20-751): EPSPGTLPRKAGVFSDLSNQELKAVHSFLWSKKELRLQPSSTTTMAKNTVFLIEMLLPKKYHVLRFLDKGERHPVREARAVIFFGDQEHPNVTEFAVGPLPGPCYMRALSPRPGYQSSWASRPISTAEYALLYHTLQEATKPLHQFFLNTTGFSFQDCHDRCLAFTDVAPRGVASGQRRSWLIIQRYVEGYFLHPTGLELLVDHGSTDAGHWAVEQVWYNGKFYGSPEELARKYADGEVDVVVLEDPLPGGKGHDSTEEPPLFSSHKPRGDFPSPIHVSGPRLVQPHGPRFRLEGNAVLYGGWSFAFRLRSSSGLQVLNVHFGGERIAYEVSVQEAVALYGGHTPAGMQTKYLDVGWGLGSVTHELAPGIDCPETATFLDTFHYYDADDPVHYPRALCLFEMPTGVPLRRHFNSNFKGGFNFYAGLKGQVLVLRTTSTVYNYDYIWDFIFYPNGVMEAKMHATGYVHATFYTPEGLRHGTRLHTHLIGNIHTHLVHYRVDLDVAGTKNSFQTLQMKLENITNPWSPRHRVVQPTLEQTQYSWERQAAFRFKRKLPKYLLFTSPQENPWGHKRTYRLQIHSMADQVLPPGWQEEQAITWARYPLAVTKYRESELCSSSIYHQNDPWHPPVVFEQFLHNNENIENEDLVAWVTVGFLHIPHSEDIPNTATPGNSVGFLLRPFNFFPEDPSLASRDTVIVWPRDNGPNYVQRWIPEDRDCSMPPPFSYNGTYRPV
Protocol: as §1, §2

CN(C)S(=O)(=O)c1ccc(-c2ccc(Cn3cnn(C/C(=C/F)CN)c3=O)s2)cc1 [Example 9, 4-[5-(1-[(2E)-2-(aminomethyl)-3-fluoroprop-2-en-1-yl]-5-oxo-1,5-dihydro-4H-1,2,4-triazol-4-ylmethyl)thiophen-2-yl]-N,N-dimethylbenzenesulfonamide hydrochloride]
IC50 (recombinant human VAP-1): 1.5 nM | IC50 [1]: > 100000 nM | IC50 [2]: 1600 nM | IC50 [3]: 170 nM

COC(=O)c1ccc(-c2ccc(Cn3cnn(C/C(=C/F)CN)c3=O)s2)cc1 [Example 10, methyl 4-[5-(1-[(2E)-2-(aminomethyl)-3-fluoroprop-2-en-1-yl]-5-oxo-1,5-dihydro-4H-1,2,4-triazol-4-ylmethyl)thiophen-2-yl]benzoate hydrochloride]
IC50 (recombinant human VAP-1): 1.5 nM | IC50 [1]: > 100000 nM | IC50 [2]: 77 nM | IC50 [3]: 500 nM

COC(=O)c1cccc(-c2ccc(Cn3cnn(C/C(=C/F)CN)c3=O)s2)c1 [Example 11, methyl 3-[5-(1-[(2E)-2-(aminomethyl)-3-fluoroprop-2-en-1-yl]-5-oxo-1,5-dihydro-4H-1,2,4-triazol-4-ylmethyl)thiophen-2-yl]benzoate hydrochloride]
IC50 (recombinant human VAP-1): 1.8 nM | IC50 [1]: > 100000 nM | IC50 [2]: 35 nM | IC50 [3]: 1100 nM

COC(=O)c1ccc(-c2ccc(Cn3cnn(C/C(=C/F)CN)c3=O)s2)cc1F [Example 12, methyl 4-[5-(1-[(2E)-2-(aminomethyl)-3-fluoroprop-2-en-1-yl]-5-oxo-1,5-dihydro-4H-1,2,4-triazol-4-ylmethyl)thiophen-2-yl]-2-fluorobenzoate hydrochloride]
IC50 (recombinant human VAP-1): 1.8 nM | IC50 [1]: > 100000 nM | IC50 [2]: 110 nM | IC50 [3]: 200 nM

COC(=O)c1cc(F)cc(-c2ccc(Cn3cnn(C/C(=C/F)CN)c3=O)s2)c1 [Example 13, methyl 3-[5-(1-[(2E)-2-(aminomethyl)-3-fluoroprop-2-en-1-yl]-5-oxo-1,5-dihydro-4H-1,2,4-triazol-4-ylmethyl)thiophen-2-yl]-5-fluorobenzoate hydrochloride]
IC50 (recombinant human VAP-1): 0.8 nM | IC50 [1]: > 100000 nM | IC50 [2]: 260 nM | IC50 [3]: 320 nM

NC/C(=C\F)Cn1ncn(Cc2ccc(-c3ccc(F)c(F)c3)s2)c1=O [Example 14, 2-[(2E)-2-(aminomethyl)-3-fluoroprop-2-en-1-yl]-4-[5-(3,4-difluorophenyl)thiophen-2-yl]methyl-2,4-dihydro-3H-1,2,4-triazol-3-one hydrochloride]
IC50 (recombinant human VAP-1): 6.5 nM | IC50 [1]: > 100000 nM | IC50 [2]: < 100 nM | IC50 [3]: 2400 nM

NC/C(=C\F)Cn1ncn(Cc2ccc(-c3ccc(F)c(C(F)(F)F)c3)s2)c1=O [Example 15, 2-[(2E)-2-(aminomethyl)-3-fluoroprop-2-en-1-yl]-4-(5-[4-fluoro-3-(trifluoromethyl)phenyl]thiophen-2-ylmethyl)-2,4-dihydro-3H-1,2,4-triazol-3-one hydrochloride]
IC50 (recombinant human VAP-1): 0.9 nM | IC50 [1]: > 100000 nM | IC50 [2]: 5 nM | IC50 [3]: 670 nM

COc1ccc(-c2ccc(Cn3cnn(C/C(=C/F)CN)c3=O)s2)cc1OC [Example 16, 2-[(2E)-2-(aminomethyl)-3-fluoroprop-2-en-1-yl]-4-[5-(3,4-dimethoxyphenyl)thiophen-2-yl]methyl-2,4-dihydro-3H-1,2,4-triazol-3-one hydrochloride]
IC50 (recombinant human VAP-1): 1.2 nM | IC50 [1]: > 100000 nM | IC50 [2]: 300 nM | IC50 [3]: 2800 nM

COc1cc(-c2ccc(Cn3cnn(C/C(=C/F)CN)c3=O)s2)cc(OC)c1OC [Example 17, 2-[(2E)-2-(aminomethyl)-3-fluoroprop-2-en-1-yl]-4-[5-(3,4,5-trimethoxyphenyl)thiophen-2-yl]methyl-2,4-dihydro-3H-1,2,4-triazol-3-one hydrochloride]
IC50 (recombinant human VAP-1): 1.2 nM | IC50 [1]: > 100000 nM | IC50 [2]: 1000 nM | IC50 [3]: 620 nM

COc1cc(COc2c(C)cc(-c3ccc(Cn4cnn(C/C(=C/F)CN)c4=O)s3)cc2C)cc(OC)c1 [Example 18, 2-[(2E)-2-(aminomethyl)-3-fluoroprop-2-en-1-yl]-4-[(5-4-[(3,5-dimethoxybenzyl)oxy]-3,5-dimethylphenylthiophen-2-yl)methyl]-2,4-dihydro-3H-1,2,4-triazol-3-one hydrochloride]
IC50 (recombinant human VAP-1): 2.1 nM | IC50 [1]: 13000 nM | IC50 [2]: 220 nM | IC50 [3]: 350 nM

Reference: US11780830B2, “Triazolone derivatives or salts thereof and pharmaceutical compositions comprising the same” (YUHAN CORPORATION, priority 2018, dated 2023)
